Where two headings read alike, the source gives them in different places.
Columns and labels:
[1] = MTT assay, inhibition of cell proliferation; conditions: tested at 0.01, 0.1, 1 and 10 μg/ml; FIG. 3
[2] = tested on: MDA MB 231 human mammary adenocarcinoma cells; experiment: Collagen invasion assay; format: cell-based; conditions: for inhibition of invasion of cells into collagen type I gel: 24 hours, FIG. 4
Source text: Tissue invasion requires infiltration into an extracellular matrix (ECM) dominated by networks of collagen type I. The invasion model consists of native, acid-extracted rat tail collagen type I containing nonhelical telopeptides situated at the N- and C-terminal ends. These telopeptides play an important role in intermolecular covalent cross-links necessary for a gel architecture presenting itself as a structural barrier to cancer cell traffic. […] The collagen type I solution was gently poured into the wells of a 6-well plate. The experimental set-up was placed at 37° C. in a humidified atmosphere with 10% CO2 in air for at least 1 h. […] Invasion is calculated as the percentage of invading cells per high powered field and is expressed as the mean and standard deviation.
Compound 7c (10 μg/ml) and paclitaxel (1 μg/ml) were tested in the assay. As a control, cells in medium without additional compounds was used. The effect of the solvent of compound 7c (1% DMSO) was measured as well.

[3] = tested on: MO4 mouse fibrosarcoma cells; experiment: SRB assay, inhibition of cell proliferation; format: cell-based; conditions: tested at 0.01, 0.1, 1 and 10 μg/ml, FIG. 2
Description: The sulforhodamine B (SRB) assay is used for cell density determination, and is based on the measurement of cellular protein content (“biomass”)^12,13. The method has been optimized for the screening of compounds for growth effects on adherent cells in a 96-well format. After an incubation period with the compound of the invention, cell monolayers (MO4 mouse fibrosarcoma cells) are fixed with 50% (wt/vol) trichloroacetic acid for 1 hour and stained with SRB for 30 min, after which the excess dye is removed by washing repeatedly with 1% (vol/vol) […]. The protein-bound dye is dissolved in 10 mM Tris base solution for OD determination at 570 nm using a microplate reader. […] The method allows to test a large number of samples within a few days, and is a quantitative assay for growth inhibition by microtubule inhibitors.

HDAC6 = biological target: T1, HDAC6 (Homo sapiens, UniProt Q9UBN7); experiment: biochemical; conditions: for inhibition at 10 µM: read-out: % inhibition HDAC6
T1 sequence (Q9UBN7 1-1215): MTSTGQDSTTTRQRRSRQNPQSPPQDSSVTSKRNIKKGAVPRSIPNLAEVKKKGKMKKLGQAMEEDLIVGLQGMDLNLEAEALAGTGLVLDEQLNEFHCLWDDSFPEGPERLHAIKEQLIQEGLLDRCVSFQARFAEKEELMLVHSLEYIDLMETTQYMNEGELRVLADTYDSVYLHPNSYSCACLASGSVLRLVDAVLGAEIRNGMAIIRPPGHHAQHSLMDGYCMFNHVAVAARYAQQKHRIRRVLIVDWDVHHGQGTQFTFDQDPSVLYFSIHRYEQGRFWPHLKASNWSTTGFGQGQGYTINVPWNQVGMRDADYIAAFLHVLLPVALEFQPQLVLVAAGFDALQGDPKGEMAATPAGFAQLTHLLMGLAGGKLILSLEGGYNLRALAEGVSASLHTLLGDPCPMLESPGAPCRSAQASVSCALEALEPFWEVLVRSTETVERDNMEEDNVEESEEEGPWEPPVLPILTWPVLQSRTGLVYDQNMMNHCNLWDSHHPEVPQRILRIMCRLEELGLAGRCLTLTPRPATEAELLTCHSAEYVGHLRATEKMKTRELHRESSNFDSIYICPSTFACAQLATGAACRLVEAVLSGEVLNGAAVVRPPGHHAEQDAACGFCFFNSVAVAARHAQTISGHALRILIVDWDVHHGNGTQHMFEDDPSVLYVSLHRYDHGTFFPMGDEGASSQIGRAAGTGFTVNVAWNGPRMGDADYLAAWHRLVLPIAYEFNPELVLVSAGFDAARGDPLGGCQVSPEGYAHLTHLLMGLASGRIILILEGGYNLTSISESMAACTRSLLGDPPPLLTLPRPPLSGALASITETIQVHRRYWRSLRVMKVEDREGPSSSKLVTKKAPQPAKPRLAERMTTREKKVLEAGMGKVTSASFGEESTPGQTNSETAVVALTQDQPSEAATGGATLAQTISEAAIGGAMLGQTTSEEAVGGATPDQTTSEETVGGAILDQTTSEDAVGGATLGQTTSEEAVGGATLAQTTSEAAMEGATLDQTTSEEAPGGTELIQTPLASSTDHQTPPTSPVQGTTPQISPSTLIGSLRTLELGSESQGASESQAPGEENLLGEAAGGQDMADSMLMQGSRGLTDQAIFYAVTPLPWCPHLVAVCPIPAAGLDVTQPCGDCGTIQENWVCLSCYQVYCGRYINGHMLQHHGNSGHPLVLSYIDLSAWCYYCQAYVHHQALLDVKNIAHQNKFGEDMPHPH

HDAC1 = HDAC1 (Homo sapiens, UniProt Q13547); experiment: HDAC1 inhibitory activity (in vitro pharmacology); format: biochemical; conditions: for inhibition at 10 µM: read-out: % inhibition HDAC1
HDAC8 = biological target: T2, HDAC8 (Homo sapiens, UniProt Q9BY41); experiment: HDAC8 inhibition (selectivity); format: biochemical
T2 sequence (Q9BY41 1-377): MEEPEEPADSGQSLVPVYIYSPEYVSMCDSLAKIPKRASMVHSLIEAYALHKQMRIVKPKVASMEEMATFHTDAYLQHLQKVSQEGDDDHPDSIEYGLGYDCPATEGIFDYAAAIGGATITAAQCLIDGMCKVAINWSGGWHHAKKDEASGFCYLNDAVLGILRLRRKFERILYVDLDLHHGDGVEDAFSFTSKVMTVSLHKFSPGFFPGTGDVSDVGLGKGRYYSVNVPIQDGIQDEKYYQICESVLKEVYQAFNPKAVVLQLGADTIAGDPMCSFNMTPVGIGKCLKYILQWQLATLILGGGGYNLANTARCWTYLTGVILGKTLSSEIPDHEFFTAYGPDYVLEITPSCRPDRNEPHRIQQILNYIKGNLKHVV

HDAC11 = biological target: T3, HDAC11 (Homo sapiens, UniProt Q96DB2); experiment: HDAC11 inhibition (selectivity); format: biochemical; conditions: for HDAC 11 inhibitory effect: no IC50 values could be obtained
T3 sequence (Q96DB2 1-347): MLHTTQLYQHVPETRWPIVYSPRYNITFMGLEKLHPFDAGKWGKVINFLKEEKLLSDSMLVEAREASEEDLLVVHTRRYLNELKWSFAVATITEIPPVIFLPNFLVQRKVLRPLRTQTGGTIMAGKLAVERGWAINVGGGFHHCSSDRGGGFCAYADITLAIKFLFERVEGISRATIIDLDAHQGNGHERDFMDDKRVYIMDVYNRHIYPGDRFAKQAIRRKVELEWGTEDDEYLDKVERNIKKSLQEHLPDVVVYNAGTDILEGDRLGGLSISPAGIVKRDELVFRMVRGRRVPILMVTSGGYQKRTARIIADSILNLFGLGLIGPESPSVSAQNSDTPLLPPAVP

HDAC4 = HDAC4 (Homo sapiens, UniProt P56524); experiment: HDAC4 inhibition (selectivity); format: biochemical
[4] = read-out: IC50 values for HDAC6 inhibition, Table 3 and text

Sequence of HDAC1 (Q13547 whole entry, species assumed): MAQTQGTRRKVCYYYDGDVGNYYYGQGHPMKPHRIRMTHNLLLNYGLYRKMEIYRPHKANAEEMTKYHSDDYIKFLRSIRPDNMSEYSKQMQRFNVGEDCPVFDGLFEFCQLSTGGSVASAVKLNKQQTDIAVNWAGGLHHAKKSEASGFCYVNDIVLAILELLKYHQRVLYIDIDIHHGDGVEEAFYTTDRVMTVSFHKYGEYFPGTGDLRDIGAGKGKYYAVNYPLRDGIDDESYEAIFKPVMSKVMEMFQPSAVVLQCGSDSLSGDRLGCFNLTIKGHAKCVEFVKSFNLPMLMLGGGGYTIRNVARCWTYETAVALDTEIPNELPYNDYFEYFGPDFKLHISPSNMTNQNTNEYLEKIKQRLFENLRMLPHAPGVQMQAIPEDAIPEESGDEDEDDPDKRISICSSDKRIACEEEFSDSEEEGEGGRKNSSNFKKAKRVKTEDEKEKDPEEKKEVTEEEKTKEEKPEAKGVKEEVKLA
Sequence of HDAC4 (P56524 whole entry, species assumed): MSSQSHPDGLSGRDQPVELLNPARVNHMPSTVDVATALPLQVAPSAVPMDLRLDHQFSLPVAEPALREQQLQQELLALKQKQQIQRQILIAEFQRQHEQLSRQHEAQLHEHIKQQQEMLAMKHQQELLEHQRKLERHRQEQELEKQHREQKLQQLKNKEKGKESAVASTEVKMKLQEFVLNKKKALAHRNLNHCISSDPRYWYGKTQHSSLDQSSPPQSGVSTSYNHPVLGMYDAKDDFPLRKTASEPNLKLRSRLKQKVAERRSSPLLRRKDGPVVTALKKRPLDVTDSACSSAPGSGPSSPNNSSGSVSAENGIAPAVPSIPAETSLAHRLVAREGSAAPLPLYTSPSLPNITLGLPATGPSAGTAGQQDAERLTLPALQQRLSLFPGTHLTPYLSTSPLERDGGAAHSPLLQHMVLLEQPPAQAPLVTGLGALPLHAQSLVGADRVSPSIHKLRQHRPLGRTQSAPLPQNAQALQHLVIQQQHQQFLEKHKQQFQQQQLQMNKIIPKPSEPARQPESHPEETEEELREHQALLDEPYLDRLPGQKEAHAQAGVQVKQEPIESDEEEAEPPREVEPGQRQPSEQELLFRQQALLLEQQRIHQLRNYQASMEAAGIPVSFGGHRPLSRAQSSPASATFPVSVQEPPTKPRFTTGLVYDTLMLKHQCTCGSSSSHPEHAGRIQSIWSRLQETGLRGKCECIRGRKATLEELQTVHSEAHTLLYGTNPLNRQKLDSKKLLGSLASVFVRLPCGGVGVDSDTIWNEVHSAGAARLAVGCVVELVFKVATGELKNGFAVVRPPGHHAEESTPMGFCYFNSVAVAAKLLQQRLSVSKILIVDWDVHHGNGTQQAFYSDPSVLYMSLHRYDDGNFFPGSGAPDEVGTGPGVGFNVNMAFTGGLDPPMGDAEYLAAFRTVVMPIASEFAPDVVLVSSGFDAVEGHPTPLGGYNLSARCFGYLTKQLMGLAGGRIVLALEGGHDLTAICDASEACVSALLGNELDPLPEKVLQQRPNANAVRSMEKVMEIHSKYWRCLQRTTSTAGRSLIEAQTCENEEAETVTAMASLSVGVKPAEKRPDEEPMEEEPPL

Compound: CC(=O)O[C@H]1C(=O)[C@@]2(C)[C@H]([C@H](OC(=O)c3ccccc3)[C@]3(O)C[C@H](OC(=O)[C@H](O)[C@@H](NC(=O)c4ccccc4)c4ccccc4)C(C)=C1C3(C)C)[C@]1(OC(C)=O)CO[C@@H]1C[C@@H]2O [Paclitaxel, reference compound]
- inhibition of cell proliferation, MTT assay [1]: inhibition of cell proliferation
- inhibition of invasion of cells into collagen type I gel ([2]; 1 μg/ml): inhibition of invasion
- inhibition of cell proliferation, SRB assay [3]: inhibition of cell proliferation

Compound: COc1cc(C(=O)NO)ccc1Cn1c2c(c3cc(F)ccc31)CS(=O)(=O)CC2 [Compound 10d]
- IC50 (HDAC6): 1300 nM
- inhibition at 10 µM (HDAC6): 75%
- inhibition at 10 µM (HDAC1): 8%

Compound: COc1cc(C(=O)NO)ccc1Cn1c2c(c3ccccc31)CS(=O)(=O)CC2 [Compound 10b]
- IC50 (HDAC6): 2000 nM
- inhibition at 10 µM (HDAC6): 73%
- inhibition at 10 µM (HDAC1): 2%

Compound: O=C(NO)c1ccc(Cn2c3c(c4ccccc42)CS(=O)(=O)CC3)cc1 [Compound 10a, N-(4-Hydroxycarbamoylbenzyl)-1,2,4,9-tetrahydro-3-thia-9-azafluorene-3,3-dioxide]
- IC50 (HDAC8): 1700 nM
- HDAC6 versus HDAC4 selectivity (HDAC6): 842 fold
- HDAC6 versus HDAC8 selectivity (HDAC6): 895 fold
- IC50 (HDAC6): 1.9 nM
- selectivity against HDAC1 (HDAC6 vs HDAC1) (HDAC6): 5789 fold
- Selectivity = IC50 (HDAC1)/IC50 (HDAC6) (HDAC6; Table 5): 5789
- inhibition at 10 µM (HDAC6): 99%
- IC50 (HDAC6; read-out: HDAC6 IC50, Table 4): 1.9 nM
- IC50 (HDAC6; read-out: HDAC6 IC50, Table 5): 1.9 nM
- IC50 (HDAC6; [4]): 1.9 nM
- HDAC 11 inhibitory effect (HDAC11): very low
- IC50 (HDAC1): 11 µM
- inhibition at 10 µM (HDAC1): 51%
- IC50 (HDAC1; read-out: HDAC1 IC50, Table 5): 11 µM
- IC50 (HDAC4): 1600 nM

Compound: O=C(NO)c1ccc(Cn2c3c(c4cc(F)ccc42)CS(=O)(=O)CC3)cc1 [Compound 10c, N-(4-Hydroxycarbamoylbenzyl)-6-fluoro-1,2,4,9-tetrahydro-3-thia-9-azafluorene-3,3-dioxide]
- IC50 (HDAC8): 930 nM
- HDAC6 versus HDAC4 selectivity (HDAC6): 513 fold
- HDAC6 versus HDAC8 selectivity (HDAC6): 251 fold
- IC50 (HDAC6): 3.7 nM
- selectivity against HDAC1 (HDAC6 vs HDAC1) (HDAC6): 3243 fold
- Selectivity = IC50 (HDAC1)/IC50 (HDAC6) (HDAC6; Table 5): 3243
- inhibition at 10 µM (HDAC6): 99%
- IC50 (HDAC6; read-out: HDAC6 IC50, Table 4): 3.7 nM
- IC50 (HDAC6; read-out: HDAC6 IC50, Table 5): 3.7 nM
- IC50 (HDAC6; [4]): 3.7 nM
- HDAC 11 inhibitory effect (HDAC11): very low
- IC50 (HDAC1): 12 µM
- inhibition at 10 µM (HDAC1): 53%
- IC50 (HDAC1; read-out: HDAC1 IC50, Table 5): 12 µM
- IC50 (HDAC4): 1900 nM

Compound: O=C(NO)c1ccc(Cn2c3c(c4ccccc42)CSCC3)cc1 [Compound 7a, N-(4-Hydroxycarbamoylbenzyl)-1,2,4,9-tetrahydro-3-thia-9-azafluorene]
- inhibition of cell proliferation, MTT assay [1]: inhibition of cell proliferation
- IC50 (HDAC6): 15 nM
- inhibition at 10 µM (HDAC6): 99%
- inhibition at 10 µM (HDAC1): 26%
- inhibition of cell proliferation, SRB assay [3]: inhibit cell proliferation
- inhibition of cell proliferation, SRB assay ([3]; listed as 7A): inhibition of cell proliferation

Compound: O=C(NO)c1ccc(Cn2c3c(c4cc(F)ccc42)CSCC3)cc1 [Compound 7c, N-(4-Hydroxycarbamoylbenzyl)-6-fluoro-1,2,4,9-tetrahydro-3-thia-9-azafluorene]
- inhibition of cell proliferation, MTT assay [1]: inhibition of cell proliferation
- IC50 (HDAC8): 2800 nM
- HDAC6 versus HDAC8 selectivity (HDAC6): 127 fold
- IC50 (HDAC6): 22 nM
- inhibition at 10 µM (HDAC6): 99%
- IC50 (HDAC6; read-out: HDAC6 IC50, Table 4): 22 nM
- IC50 (HDAC6; [4]): 22 nM
- IC50 (HDAC11): 9.7 µM
- IC50 (HDAC1): 21 µM
- inhibition at 10 µM (HDAC1): 17%
- IC50 (HDAC4): 1500 nM
- inhibition of invasion of cells into collagen type I gel ([2]; 10 μg/ml, compared to solvent control (1% DMSO)): inhibits invasion
- inhibition of invasion of cells into collagen type I gel ([2]; 10 μg/ml, compared to solvent control (1% DMSO), listed as 7C): inhibition of invasion
- histology of invasion ([2]; after 14 days): confirmed inhibition of invasion
- inhibition of cell proliferation, SRB assay [3]: inhibit cell proliferation
- inhibition of cell proliferation, SRB assay ([3]; listed as 7C): inhibition of cell proliferation
